Values of other authors as cited in patent publication US20260248756A1, “FAT COMPOSITION COMPRISING TRIBUTYRIN AND TRICAPROIN AND ITS USE IN MILK REPLACERS” (Nutreco IP Assets B.V., priority 2023, published 2026).

CCCC(=O)OCC(COC(=O)CCC)OC(=O)CCC [tributyrin]
total intake of solid feed (postweaning, tributyrin up to 0.6 wt % of dry matter in CMR): increased total intake of solid feed | body weight compared with calves not fed tributyrin (weaning and postweaning period, 0.6 wt % of dry matter tributyrin in milk replacer): greater body weight
